# According to patent US20220378763A1, “COMPOUND FOR TREATMENT OF ACUTE INFLAMMATION IN THE MYOCARDIUM” (CALPROTECT AB, priority 2019, published 2022):
# Experiments:
# [1] = test system: C57BL/6 mice reconstituted with Nur77-EGFP bone marrow, with MI; test: Nur77 expression by flow cytometry in Nur77-EGFP bone marrow chimeras, day 7 post-MI; assay type: in vivo, mouse; settings: 7 days treatment
# Protocol: Eight-week-old C57BL/6NRJ female mice were lethally irradiated with a total dose of 910 cGy. One day after irradiation, 1×10^6 total bone marrow cells harvested from donor C57BL/6-Tg(Nr4a1-EGFP/cre)820Khog/J (Nur77-EGFP) mouse and re-suspended in PBS were administered to each recipient mouse via the tail vein. Recipient mice were treated with neomycin in drinking water (2 g/L) for two weeks. Blood samples were collected from all the recipient mice at four weeks after bone marrow transfer, to confirm the success of bone marrow reconstitution by flow cytometry. The mice were used for experiments 6 weeks after bone marrow transfer (FIG. 4S).
# In order to investigate the underlying molecular mechanisms involved in the […] of myocardial repair by S100A9 blockade, we induced MI in C57Bl/6 mice transplanted with Nur77-EGFP transgenic bone marrow expressing the fluorescent EGFP protein under the Nur77 promoter (FIG. 4S). The expression of Nur77 was measured by flow cytometry in blood monocytes and heart macrophages harvested on day 7 post-MI from mice receiving 7 days ABR-238901 treatment or PBS. […] Nur77 levels were unaffected in the fully-differentiated Ly6C^lo monocytes and Ly6C^loMerTK^hi macrophages (FIG. 4t; FIG. 11b). Further, we studied the influence of S100A9 on Nur77 expression and activity in monocytes and macrophages in-vitro, and the ability of ABR-238901 to inhibit these effects. Stimulation with recombinant extracellular S100A9 for 24 h increased Nur77 expression in bone marrow-derived C57BL/6 monocytes (FIG. 4U). […] Both of these effects were inhibited by ABR-238901 (FIG. 4U-V).
# [2] = biological target: T1, S100A9 binding to RAGE (Homo sapiens, UniProt P06702); test: Surface plasmon resonance (Biacore 3000): inhibition of S100A9 binding to immobilized RAGE; settings: 50 nM recombinant human S100A9 over immobilized RAGE; response at late dissociation phase
# T1 sequence (P06702 1-114): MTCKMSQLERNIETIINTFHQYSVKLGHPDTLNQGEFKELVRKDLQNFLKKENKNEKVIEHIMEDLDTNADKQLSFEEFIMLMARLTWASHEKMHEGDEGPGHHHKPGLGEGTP
# Source text: (a) The molecular structure of ABR-238901. (b-c) Surface plasmon resonance measurement of S100A9 binding to immobilized RAGE (b) and TLR4 (c) in the presence of increasing ABR-238901 concentrations. The magnitude of the response for each ABR-238901 concentration (BABR-238901), measured at the late dissociation phase (t 350s), was expressed as percentage of the response in the absence of competitor (BO), and plotted against the concentration of ABR-238901.
# Inhibition of S100A9 binding to RAGE and TLR4/MD2 by ABR-238901 was tested by surface plasmon resonance in a Biacore 3000 system (GE Healthcare, Uppsala, Sweden). Briefly, 50 nM of recombinant human S100A9 was injected over immobilized RAGE and TLR4 (2 min at 30 μL/min) in the presence of increasing concentrations of ABR-238901, ranging from 0.0488 to 100 μM. The magnitude of the responses measured at the late dissociation phase (t 350 s) in the presence of ABR-238901 (BABR-238901) were expressed as percentage of response in the absence of competitor (Bo), and plotted against the concentration of ABR-238901 (FIG. 7b-c). The curves were fit to a sigmoidal dose-response model with variable slope in Prism GraphPad for calculation of IC50.
# [3] = test system: Nur77 in bone marrow-derived monocytes; test: Nur77 expression in cultured bone marrow-derived monocytes stimulated with S100A9; assay type: cell-based, mouse; settings: S100A9 20 μg/mL, ABR-238901 100 μM, 24 h
# Protocol: To obtain bone marrow-derived monocytes, bone marrow cells were isolated from femur and tibia of wild-type mice (C57BL/6NRJ) (n=3). Cells were cultured in RPMI-1640 (GIBCO Invitrogen) with 100 U/ml penicillin/streptomycin (GIBCO Invitrogen), 10% heat-inactivated fetal calf serum (FCS; GIBCO Invitrogen) and 20 ng/ml M-CSF (Peprotech) for 3 days. On day 3, unattached cells were collected, and the monocyte phenotype was confirmed by flow cytometry as CD45^+CD11b^+CD115^+ cells. The cells were re-suspended in medium and seeded at a density of 1×10^5 cells/ml. Extracellular S100A9 (20 μg/mL) with or without the S100A9 antagonist ABR-238901 at a concentration of 100 μM were incubated in the presence of 10 μM ZnCl2 (Sigma) and 2 mM CaCl2 for 15 minutes and added to the monocyte culture. Recombinant human endotoxin-free S100A9 protein was provided by Active Biotech AB. Following 24 h stimulation, intracellular Nur77 expression was analysed by flow cytometry.
smiles,measurement,setting,value
"COc1ncc(S(=O)(=O)Nc2cncc(Cl)c2O)cc1Br [ABR-238901, 5-bromo-N-(5-chloro-4-hydroxypyridin-3-yl)-6-methoxypyridine-3-sulfonamide]",Intracellular Nur77 levels in blood Ly6Chi/int monocytes,[1],lower
same,Numbers of reparatory Ly6CloMerTKhi macrophages in the myocardium,[1],reduced
same,Nur77 levels in Ly6Clo monocytes,[1],unaffected
same,Nur77 levels in Ly6CloMerTKhi macrophages,[1],unaffected
same,IC50,[2],2700 nM
same,S100A9-induced increase of Nur77 expression,[3],inhibited
